Test system: style-specific S1 RNase and S2 RNase
Assay: Inhibition of style-specific RNase activity
Assay type: biochemical, Fuji apple
Conditions: 1 mM DEPC
Protocol: The activity variation of the style-specific S1 RNase and S2 RNase purified in the Example 1-4 was investigated by adding chemicals acting as an inhibitor of protein degradation enzyme. RNase activity was measured by adding general stimulators of RNase activity, inhibitors of RNase activity commercially available and inhibitor candidate of a style-specific RNase of the present invention (Singh A. et al., Plant Physiology, 96:61-68, 1991). Among them, 1 mM EDTA, which is a representative inhibitor of protein degradation enzyme, 1 mM CaCl2, a stimulator of RNase activity, 1 mM DEPC (Sigma), a fatally poisonous inhibitor of RNase activity commercially available, and 1 mM ZnSO4 and 1 mM CuSO4, inhibitor candidates of the style-specific RNase was added respectively to mesure RNase activity.

CCOC(=O)OC(=O)OCC [DEPC]
style-specific RNase activity: inhibited
